Results: US20230114865A1, “PHENYL PYRROLE AMINOGUANIDINE SALTS AND FORMULATIONS” (SYNACT PHARMA APS, priority 2021, published 2023)
Read-outs that look alike come from different tables or passages of the source. Marks after values point to notes of the source that are not given here. Blank lines part the entries; values can stand above or below the compound they belong to.

How the values were obtained:
[1] = Solubility of additional AP1189 salts, HCl/KCl buffer 0.5 M pH 1.2; type: physicochemical
[2] = Stability of AP1189 in Ora-Sweet and Ora-Sweet SF, HPLC; type: physicochemical; conditions: 20 mg/ml suspension, pH 4.25, T=0
Method: Stability of AP1189 in Ora-Sweet and Ora-Sweet SF was tested.

[3] = test system: primary macrophages; conditions: cited from earlier work
[4] = test system: peritonitis; conditions: in vivo; cited from earlier work
[5] = test system: MC3R; conditions: cited from earlier work
[6] = test system: experimental inflammatory arthritis; conditions: in vivo; cited from earlier work
[7] = Forced degradation studies on AP1189 at low pH; type: physicochemical; conditions: within 24 hours
[8] = test system: MC1R; conditions: cited from earlier work
[9] = Chemical stability of AP1189 suspension in Syrspend SF Alka, HPLC; type: physicochemical; conditions: room temp.; for Total Impurities (% Area) Initial / Total Impurities (% Area) T = 30 min / Total Impurities (% Area) T = 60 min / Total Impurities (% Area) T = 90 min: Syrspend SF Alka
Method: An experiment was conducted at lowest (15 mg) and highest (400 mg) dose strength to assess the dispersability and physical stability of the suspension. Chemical stability of the suspension was assessed by HPLC for 90 minutes at every 30 minutes interval.

[10] = test system: melanocytes; conditions: cited from earlier work
[11] = buffer pH 1.2, fully dissolved, succinate 0.5 h
Method: As a result, the pH was adjusted to 1.2 with concentrated hydrochloric acid in both solutions. Both sample preparations were diluted 500 times with the sample diluent (acetonitrile:water 1:1 v/v).

Solubility HCI/KCI Buffer 0.5 M pH 1.2 [1]: <15 mM
Compound: CC1(C)C2CCC1(CS(=O)(=O)O)C(=O)C2 (stereo not shown)

AP1189 degradation in Ora-Sweet SF, Initial [2]: <LOQ
degradation at low pH [7]: at least 20%
stability in Syrspend SF Alka (in words) ([9]; 90 minutes): stable
Total Impurities (% Area) Initial ([9]; dose strength 15 mg): 0.89* % Area
Total Impurities (% Area) T = 30 min ([9]; dose strength 15 mg): 0.94* % Area
Total Impurities (% Area) T = 60 min ([9]; dose strength 15 mg): 0.88* % Area
Total Impurities (% Area) T = 90 min ([9]; dose strength 15 mg): 0.87* % Area
Total Impurities (% Area) Initial ([9]; dose strength 400 mg): 0.45 % Area
Total Impurities (% Area) T = 30 min ([9]; dose strength 400 mg): 0.45 % Area
Total Impurities (% Area) T = 60 min ([9]; dose strength 400 mg): 0.45 % Area
Total Impurities (% Area) T = 90 min ([9]; dose strength 400 mg): 0.45 % Area
Compound: NC(N)=N/N=C/C=C/c1cccn1-c1ccccc1[N+](=O)[O-] [AP1189, (E)-N-[1-(2-nitrophenyl)-1-H-pyrrole-2-yl-allylideneamino]-guanidine]
cytokine release in macrophages [3]: reduce cytokine release
efferocytosis in primary macrophages [3]: proefferocytic effect
actions in peritonitis [4]: elicit anti-inflammatory actions
ERK1/2 phosphorylation [5]: cause ERK1/2 phosphorylation
canonical cAMP generation [5]: does not induce canonical cAMP generation
characterisation at MC3R [5]: biased agonist
macroscopic and histological parameters of joint disruption [6]: significantly reduce
ERK1/2 phosphorylation [8]: cause ERK1/2 phosphorylation
canonical cAMP generation [8]: does not induce canonical cAMP generation
characterisation at MC1R [8]: biased agonist
melanogenesis in melanocytes [10]: no melanogenesis was induced

Determined concentration in pH 1.2 samples ([11]; acetate 5 h): >223 mg/mL
Determined concentration in pH 1.2 samples ([11]; time in cell: acetate 5 h): >617 mM (5 h)
Compound: (E)-N-[1-(2-nitrophenyl)-1-H-pyrrole-2-yl-allylideneamino]-guanidinium acetate [AP1189 acetate]
